From the SangsterLogP compilation

Assay: method code SF-HPLC, from PMID: 1388632
Conditions: pH 7.4

SMILES	logD
CC(=O)OCc1c2c(n3c1C(OC(C)=O)CC3)C(=O)C=C(C(C)=O)C2=O (centres undefined)	1.15
CC(=O)OCc1c2c(n3c1C(OC(C)=O)CC3)C(=O)C(C)=C(N1CC1)C2=O (centres undefined)	1.75
CC(=O)OCc1c2c(n3c1CCC3)C(=O)C(C)=C(C(C)=O)C2=O	2.81
CC(=O)C1=CC(=O)c2c(c(CO)c3n2CCCC3O)C1=O (centres undefined)	0.37

Now from value to molecule:

logD	SMILES
1.14	CC(=O)C1=C(C)C(=O)c2c(c(CO)c3n2CCC3O)C1=O (centres undefined)
1.83	CCNC(=O)OCc1c2c(n3c1C(O)CC3)C(=O)C(C)=C(OC)C2=O (centres undefined)
0.89	CC(=O)OCc1c2c(n3c1C(O)CCC3)C(=O)C=C(C(C)=O)C2=O (centres undefined)
-0.09	CC(=O)C1=CC(=O)c2c(c(CO)c3n2CCC3O)C1=O (centres undefined)
4	CCCC(=O)OCc1c2c(n3c1C(OC(=O)CCC)CC3)C(=O)C(C)=C(C(C)=O)C2=O (centres undefined)
